# Assay results as given in EPA's ToxValDB 9.5 (doi:10.2903/j.efsa.2008.136r).
# What was measured:
# Anas platyrhynchos = conditions: oral, mortality
# Pimephales promelas = conditions: chronic/long-term; duration: 35 days; growth
# Typhlodromus pyri = conditions: acute; duration: 7 days; mortality
# Daphnia magna = conditions: chronic/long-term; duration: 21 days; reproduction
# Canidae = conditions: oral, Dog Other, organ weight
# Oncorhynchus mykiss = conditions: acute; duration: 96 hours; mortality
# Apis mellifera = conditions: acute; duration: 48 hours; oral; unspecified; mortality
# Coturnix japonica = conditions: reproduction developmental
# Colinus virginianus = conditions: acute, oral, mortality
compound,measurement,setting,value
Clc1ccc(C2(Cn3cncn3)CC(Br)CO2)c(Cl)c1 (stereo not drawn) [Bromuconazole],LD50,"Anas platyrhynchos; acute, unspecified",> 2150 mg/kg-day
same,LC50,"Anas platyrhynchos; short-term, feed",> 684 mg/kg-day
same,NOEC,Pimephales promelas,0.065 mg/L
same,LEL,Typhlodromus pyri,260 g/ha
same,NOEC,Daphnia magna,0.02 mg/L
same,NOAEL,"Canidae; chronic, duration: 1 years",2.5 mg/kg-day
same,NOAEL,"Canidae; subchronic, duration: 90 days",2.5 mg/kg-day
same,LC50,Oncorhynchus mykiss,1.7 µg/mL
same,LD50,Apis mellifera,> 100 µg/piece
same,NOEC,Coturnix japonica,26.5 mg/kg-day
same,LC50,"Tagia sp.; acute, duration: 14 days, mortality",> 1000 mg/kg
same,NOEC,"Tagia sp.; chronic/long-term, duration: 56 days",37.2 mg/kg
same,LD50,"Rattus norvegicus; acute, F, mortality",328 mg/kg-day
same,NOAEL,"Rattus norvegicus; chronic, duration: 2 years, oral, diet, histopathology: nonneoplastic",0.88 mg/kg-day
same,NOAEL,"Rattus norvegicus; developmental, development",10 mg/kg-day
same,NOEC,"Rattus norvegicus; reproduction developmental, reproduction",1.3 mg/kg-day
same,LC50,Colinus virginianus; diet,> 778 mg/kg-day
same,LD50,Colinus virginianus,> 2150 mg/kg-day
